How the values were obtained:
Format in all cases: cell-based
Conditions in all cases: human fibroblast culture, radioactive labelling
human dermal fibroblasts [1] = assay: Leucine incorporation (protein synthesis) in human fibroblast cultures
From the text: (§1) In another embodiment of the invention the CSBP obtained in the present example was characterised by its efficiency in stimulating the fundamental metabolism of human dermal fibroblasts, more particularly by incorporation of various markers such as thymidine (cell growth), leucine (protein synthesis) and glucosamine (synthesis of GAG).
(§2) Tests in vitro on human fibroblast cultures are a means of evaluating the capacity of CSBP to stimulate the fundamental metabolism of the extracellular matrix of the cutis. Under conventional conditions of cultivation in triplicate, the CSBP according to the invention and positive references (EGF, epidermis growth factor at 10 ng/ml, TGF-β human transformation factor b at 10 ng/ml and vitamin C at 20 mg/ml) were placed in contact with fibroblasts. The neosynthesis can be quantified by radioactive labelling of the specific metabolites (amino acids). Two concentrations of CSBP were tested: 2 and 0.4 mg/ml. The results obtained in the following table were subjected to the Dunnett test:
(§3) The culture conditions were as follows:
(§4) Culture medium MEM/M199: sodium bicarbonate 1.87 mg/ml, L-glutamine 2 mM, penicillin 50 IU/ml and foetal calf serum 10%.

human dermal fibroblasts [2] = assay: Thymidine incorporation (cell growth) in human fibroblast cultures
From the text: as §1, §2, §3, §4

human dermal fibroblasts [3] = assay: Glucosamine incorporation (synthesis of GAG) in human fibroblast cultures
From the text: as §1, §2, §3, §4

Question: Which “% Leucine” value (human dermal fibroblasts [1]; positive reference vitamin C) does the source give for O=C1O[C@H]([C@@H](O)CO)C(O)=C1O [VIT C, vitamin C, reference compound] here?
Answer: Its value is “VIT C: 45%”.

Question: With “EGF: epidermis growth factor, positive reference (NSDSECPLSHDGYCLHDGVCMYIEALDKYACNCVVGYIGERCQYRDLKWWELR; Epidermal growth factor; UniProt P01133 971-1023, looked up) [reference compound]” as the compound, how does the “% Thymidine” value (human dermal fibroblasts [2]; positive reference EGF at 10 ng/ml) read?
Answer: The value was “EGF: 100%”.

Question: What does the source list for “low molecular weight chondroitin sulphate [CSBP]”?
Answer: % Leucine (human dermal fibroblasts [1]; CSBP 0.4 mg/ml): 44 p < 0.05%; % Leucine (human dermal fibroblasts [1]; CSBP 2.0 mg/ml): 88 p < 0.01%; % Glucosamine (human dermal fibroblasts [3]; CSBP 0.4 mg/ml): 57 p < 0.01%; % Glucosamine (human dermal fibroblasts [3]; CSBP 2.0 mg/ml): 178 p < 0.01%; % Thymidine (human dermal fibroblasts [2]; CSBP 0.4 mg/ml): 74 p < 0.01%; % Thymidine (human dermal fibroblasts [2]; CSBP 2.0 mg/ml): 183 p < 0.01%

Source: patent publication US20030032620A1, “Low molecular weight chondroitin sulphate compound having cosmetic activity” (priority 2001, published 2003)
